Reference: a melting point compilation (Tetko et al.; mined from patent text by program, amines drawn as free bases though some values may be those of a salt)

Row | SMILES | melting point
1 | CCn1nc(C(=O)NC2CN(C)CCN(Cc3cccc(C)c3)C2)c2ccccc21 (stereo not drawn) | 135 to 137 °C
2 | NC(=O)Cc1cccc(C(=O)c2ccc(F)cc2)c1N | 184 to 186 °C
3 | COc1cnc(C#N)c(C)c1 | 80 to 81 °C
4 | CCC(CC)c1ccc(Cl)c2nc3n(c12)CCN3c1ccc(Br)cc1Cl | 165 to 168 °C
5 | OC1(CCc2ccccc2)CCC2(CC1)OCCO2 | 109 to 110 °C
6 | CCCCN(CCCC)c1ccc(C=CC=CC2=C(C#N)C(=C(C#N)C#N)OC2(C)C(F)(F)F)c(OC)c1 (stereo not drawn) | 169 to 170 °C
7 | O=C(Nc1ccc2c(c1)CCSC2)OCc1ccccc1 | 116 to 118 °C
8 | Cc1cc(=O)[nH]c2ccc(C(O)(C(F)(F)F)C(F)(F)F)cc12 | 157 to 158 °C
9 | COc1cc2c(cc1OC)CCCC(C(=O)N1CCN(C(=O)c3cc(OC)c(OC)c(OC)c3)CC1)=C2 | 164 to 165 °C
10 | COC1(c2cc(F)cc(OCc3ccc4ccccc4c3)c2)CCOCC1 | 109 to 111 °C
11 | CC(=O)Oc1ccc2c(c1)CCC1C3CCC(=O)C3(C)CC(=O)C21O (stereo not drawn) | 247 to 248 °C
12 | COc1cc(CC(=O)Nc2ccc(C3CN(C(=O)CCC(=O)O)CC3C(=O)O)cc2)ccc1NC(=O)Nc1ccccc1C (stereo not drawn) | 184 °C
13 | CCOP(=O)(/C=C/c1cn(-c2ccccc2)nc1OCc1ccccc1)OCC | 89 to 90 °C
14 | O=[N+]([O-])c1cc(-c2cccnc2)ccc1O | > 300 °C
15 | Cc1nc2cnc(N3CCN(CCCC(=O)c4ccc(F)cc4)CC3)cc2[nH]1 | 180 to 183 °C
16 | Cc1cccc(N2C(=S)SCC2O)n1 (stereo not drawn) | 128 °C
17 | C[C@@H]1Cc2cc3c(cc2C(c2ccc([N+](=O)[O-])c(Cl)c2)=NN1)OCO3 | 165 to 170 °C
18 | Cc1cc2c(cc1Cl)NC(=O)CC(c1cccc(-c3ccnc(CNC4CC4)c3)c1)=N2 | 171 °C
19 | COc1nscc1C(=O)O | 182 to 185 °C
20 | CCCCc1ncc(/C=C(/C(=O)O)C(CCCC)c2cccs2)n1Cc1ccccc1Cl (stereo not drawn) | 161 to 163 °C
21 | CN1C(=O)C(c2c[nH]c3ncccc23)=C(c2cn(S(=O)(=O)c3ccccc3)c3ncccc23)C1=O | 198 °C
22 | CCOC(=O)C1=C(C)NC(CSC(=N)N)=C(C(=O)OCC)C1c1cccc([N+](=O)[O-])c1 (single isomer, unassigned; (+)) | 124 to 126 °C
23 | CN(C(=O)CN1C(=O)C(NC(=O)Nc2cccc(N)c2)N=C(CN2CCOCC2)c2ccccc21)c1ccccc1 (stereo not drawn) | 158 to 160 °C
24 | CCOC(=O)c1cn(-c2cccnc2)cn1 | 102 to 103 °C

Row | SMILES | melting point
25 | CC(=O)c1cc2c(s1)CCCc1cc(=O)n(-c3ccc(Cl)cc3)nc1-2 | 164 to 166 °C
26 | CC(C)(CO)NC(=O)c1nn(-c2ccc(Cl)cc2F)c2c1C1CCC2C1 (stereo not drawn) | 158 to 160 °C
27 | N#CCCNC(=O)c1cccc(-c2ccc3c(c2)N(Cc2cc(Cl)cc(Cl)c2)CC3)c1 | 179 to 180 °C
28 | COc1ccc(CN2C(=O)C(C)(c3cc(N(C)C(=O)C4CCCN4C(C)=O)ccc3Cl)c3cc(Cl)ccc32)c(OC)c1 (stereo not drawn) | 74 °C
29 | O=C(CNC(=O)OCc1ccccc1)NCC1CCCCC1 | 95 to 98 °C
30 | CCOC(=O)COc1ccc2nc(CC)cc(OCc3ccc(-c4ccccc4-c4nnn(C(c5ccccc5)(c5ccccc5)c5ccccc5)n4)cc3)c2n1 | 146 to 150 °C
31 | CN(C)C(=O)NC(=CC(=O)Nc1cc(F)c(C#N)cc1F)C(F)(F)F | 138 °C
32 | CCOC(=O)C=Cc1ccc(NC(=O)OC(C)(C)C)cc1 | 105 to 109 °C
33 | COc1cc(OC)cc(-c2ncn(CCO)c2-c2ccc(OC)c(F)c2)c1 | 202 to 204 °C
34 | Cc1cccc2c(=O)[nH]c(N3CCN(C)C(CO)C3)cc12 (stereo not drawn) | 184 to 186 °C
35 | Cc1[nH]cc2c(=O)n(-c3ccc(Cl)cc3)nc-2c1-c1cccc(C(=O)N2CCCC2)c1 | 253 to 255 °C
36 | FC(F)(F)c1ccc2nc(N3CCN(Cc4c(Cl)cccc4Cl)CC3)[nH]c2c1 | 254 to 256 °C
37 | COc1ccc([C@@H]2CC=CC[C@H]2[N+](=O)[O-])cc1OC (racemic) | 114 to 116 °C
38 | COc1ccc(CNc2n[nH]c(N)c2C#N)cc1 | 148 to 149 °C
39 | O=C(NCC12CC3CC(CC(C3)C1)C2)c1cc(-c2ncccc2C(=O)O)ccc1Cl | 169 to 172 °C
40 | O=C(O)COCCCCS(=O)(=O)c1cnc(-c2ccccc2)c(-c2ccccc2)n1 | 123 to 125 °C
41 | CC1(C)OC(c2ccc(S(N)(=O)=O)cc2)=C(c2ccc3c(c2)OCO3)C1=O | 178 to 179 °C
42 | CCCCC[C@H]1CC[C@H](CSc2cc(O)c3c(c2N)C(=O)c2ccccc2C3=O)CC1 | 129 to 130 °C
43 | O=C(c1ccc(Cl)cc1)C1(c2ccccc2Cl)CO1 (stereo not drawn) | 65 to 66 °C
44 | CC1C(=O)N2CCCC(C(=O)OC(C)(C)C)N2C1=O (stereo not drawn) | 127 to 128 °C
45 | COc1ccc(CCOc2nccc(-c3cccc(C(=O)O)c3)n2)cc1OC | 171 to 172 °C
46 | Cc1coc(NC(=O)C2c3ccccc3Oc3ccccc32)n1 | 219 to 222 °C
47 | COCCCOc1cc(C[C@@H](C[C@H](N)[C@@H](O)C[C@H](C(=O)NCC(C)(C)C(N)=O)C(C)C)C(C)C)ccc1OC | 95 to 104 °C
48 | CC[C@H]1C(=O)N([Si](C)(C)C(C)(C)C)[C@H]1C(=O)C=[N+]=[N-] | 88 to 89 °C
